Test results as given in patent US11155520B2, “Picolinamides as fungicides” (Dow AgroSciences LLC, priority 2018, dated 2021).

What was measured:
Assay type in all cases: in vivo
Phakopsora pachyrhizi = test: Fungicidal activity: Asian soybean rust (PHAKPA); conditions: High volume, 25 ppm; for PHAKPA 1DP disease control: 1 Day Protectant; for PHAKPA 3DC disease control: 3 Day Curative
Protocol: Technical grades of materials were dissolved in acetone, which were then mixed with nine volumes of water containing 0.011% Tween 20. The fungicide solutions were applied onto soybean seedlings using an automated booth sprayer to run-off. All sprayed plants were allowed to air dry prior to further handling.
Soybean plants (variety Williams 82) were grown in soil-less Metro mix, with one plant per pot. Two week old seedlings were used for testing. Plants were inoculated either 3 days prior to or 1 day after fungicide treatments. Plants were incubated for 24 h in a dark dew room at 22° C. and 100% relative humidity then transferred to a growth room at 23° C. for disease to develop. Disease severity was assessed on the sprayed leaves.

[1] = tested on: Magnaporthe grisea; Anamorph: Pyricularia oryzae; conditions: 1DP test at 100 ppm, rice
[2] = tested on: Pseudoperonospora cubensis; test: Fungicidal activity: cucumber downy mildew (PSPECU); conditions: 1DP test at 100 ppm
Protocol: Technical grades of materials were dissolved in acetone, which were then mixed with nine volumes of water containing 110 ppm Triton X-100. The fungicide solutions were applied onto wheat seedlings using an automated booth sprayer to run-off. All sprayed plants were allowed to air dry prior to further handling. All fungicides were evaluated using the aforementioned method for their activity vs. all target diseases, unless stated otherwise. Wheat leaf blotch and brown rust activity were also evaluated using track spray applications, in which case the fungicides were formulated as EC formulations, containing 0.1% Trycol 5941 in the spray solutions. Cucumber seedlings (variety Bush Pickle) were grown in soil-less Metro mix, with one plant per pot, and used in the test when 12 to 14 days old. Plants were inoculated with a spore suspension 24 hr following fungicide treatments. Test plants were inoculated with an aqueous spore suspension of Pseudoperonospora cubensis 24 hr after fungicide treatments. After inoculation the plants were kept in a dew room at 22° C. with 100% relative humidity for 24 hr to permit spores to germinate and infect the leaf. The plants were then transferred to a greenhouse set at 20° C. until disease was fully expressed. Fungicide formulation, application and disease assessment on the sprayed leaves followed the procedures as described in the Example A.

Cercospora beticola = test: Fungicidal activity: leaf spot of sugar beets (CERCBE); conditions: 1DP test at 100 ppm, sugar beet
Protocol: Technical grades of materials were dissolved in acetone, which were then mixed with nine volumes of water containing 110 ppm Triton X-100. The fungicide solutions were applied onto wheat seedlings using an automated booth sprayer to run-off. All sprayed plants were allowed to air dry prior to further handling. All fungicides were evaluated using the aforementioned method for their activity vs. all target diseases, unless stated otherwise. Wheat leaf blotch and brown rust activity were also evaluated using track spray applications, in which case the fungicides were formulated as EC formulations, containing 0.1% Trycol 5941 in the spray solutions. Sugar beet plants (variety HH88) were grown in soil-less Metro mix and trimmed regularly to maintain a uniform plant size prior to test. Plants were inoculated with a spore suspension 24 hr after fungicide treatments. Inoculated plants were kept in a dew chamber at 22° C. for 48 hr then incubated in a greenhouse set at 24° C. under a clear plastic hood with bottom ventilation until disease symptoms were fully expressed. Fungicide formulation, application and disease assessment on the sprayed leaves followed the procedures as described in the Example A.

Alternaria solani = test: Fungicidal activity: tomato early blight (ALTESO); conditions: 1DP test at 100 ppm
Protocol: Technical grades of materials were dissolved in acetone, which were then mixed with nine volumes of water containing 110 ppm Triton X-100. The fungicide solutions were applied onto wheat seedlings using an automated booth sprayer to run-off. All sprayed plants were allowed to air dry prior to further handling. All fungicides were evaluated using the aforementioned method for their activity vs. all target diseases, unless stated otherwise. Wheat leaf blotch and brown rust activity were also evaluated using track spray applications, in which case the fungicides were formulated as EC formulations, containing 0.1% Trycol 5941 in the spray solutions. Tomato plants (variety Outdoor Girl) were propagated in soil-less Metro mix, with each pot having one plant, and used when 12 to 14 days old. Test plants were inoculated with an aqueous spore suspension of Alternaria solani 24 hr after fungicide treatments. After inoculation the plants were kept in 100% relative humidity (one day in a dark dew chamber followed by two to three days in a lighted dew chamber at 20° C.) to permit spores to germinate and infect the leaf. The plants were then transferred to a growth room at 22° C. for disease to develop. Fungicide formulation, application and disease assessment on the sprayed leaves followed the procedures as described in the Example A.

Parastagonospora nodorum = test: Fungicidal activity: wheat glume blotch (LEPTNO); conditions: 1DP test at 100 ppm
Protocol: Technical grades of materials were dissolved in acetone, which were then mixed with nine volumes of water containing 110 ppm Triton X-100. The fungicide solutions were applied onto wheat seedlings using an automated booth sprayer to run-off. All sprayed plants were allowed to air dry prior to further handling. All fungicides were evaluated using the aforementioned method for their activity vs. all target diseases, unless stated otherwise. Wheat leaf blotch and brown rust activity were also evaluated using track spray applications, in which case the fungicides were formulated as EC formulations, containing 0.1% Trycol 5941 in the spray solutions. Wheat plants (variety Yuma) were grown from seed in a greenhouse in 50% mineral soil/50% soil-less Metro mix until the first leaf was fully emerged, with 7-10 seedlings per pot. These plants were inoculated with an aqueous spore suspension of Parastagonospora nodorum 24 hr after fungicide treatments. After inoculation the plants were kept in 100% relative humidity (one day in a dark dew chamber followed by two days in a lighted dew chamber at 20° C.) to permit spores to germinate and infect the leaf. The plants were then transferred to a greenhouse set at 20° C. for disease to develop. Fungicide formulation, application and disease assessment followed the procedures as described in the Example A.

Uncinula necator = test: Fungicidal activity: grape powdery mildew (UNCINE); conditions: 1DP test at 100 ppm
Protocol: Technical grades of materials were dissolved in acetone, which were then mixed with nine volumes of water containing 110 ppm Triton X-100. The fungicide solutions were applied onto wheat seedlings using an automated booth sprayer to run-off. All sprayed plants were allowed to air dry prior to further handling. All fungicides were evaluated using the aforementioned method for their activity vs. all target diseases, unless stated otherwise. Wheat leaf blotch and brown rust activity were also evaluated using track spray applications, in which case the fungicides were formulated as EC formulations, containing 0.1% Trycol 5941 in the spray solutions. Grape seedlings (variety Carignane) were grown in soil-less Metro mix, with one plant per pot, and used in the test when approximately 1 month old. Plants were inoculated 24 hr after fungicide treatment by shaking spores from infected leaves over test plants. Plants were maintained in a greenhouse set at 20° C. until disease was fully developed. Fungicide formulation, application and disease assessment on sprayed leaves followed the procedures as described in the Example A.

Rhyncosporium secalis = test: Fungicidal activity: barley scald (RHYNSE); conditions: 1DP test at 100 ppm
Protocol: Technical grades of materials were dissolved in acetone, which were then mixed with nine volumes of water containing 110 ppm Triton X-100. The fungicide solutions were applied onto wheat seedlings using an automated booth sprayer to run-off. All sprayed plants were allowed to air dry prior to further handling. All fungicides were evaluated using the aforementioned method for their activity vs. all target diseases, unless stated otherwise. Wheat leaf blotch and brown rust activity were also evaluated using track spray applications, in which case the fungicides were formulated as EC formulations, containing 0.1% Trycol 5941 in the spray solutions. Barley seedlings (variety Harrington) were propagated in soil-less Metro mix, with each pot having 8 to 12 plants, and used in the test when first leaf was fully emerged. Test plants were inoculated by an aqueous spore suspension of Rhyncosporium secalis 24 hr after fungicide treatments. After inoculation the plants were kept in a dew room at 20° C. with 100% relative humidity for 48 hr. The plants were then transferred to a greenhouse set at 20° C. for disease to develop. Fungicide formulation, application and disease assessment on the sprayed leaves followed the procedures as described in the Example A.

[3] = tested on: Glomerella lagenarium; Anamorph: Colletotrichum lagenarium; test: Fungicidal activity: cucumber anthracnose (COLLLA); conditions: 1DP test at 100 ppm
Protocol: Technical grades of materials were dissolved in acetone, which were then mixed with nine volumes of water containing 110 ppm Triton X-100. The fungicide solutions were applied onto wheat seedlings using an automated booth sprayer to run-off. All sprayed plants were allowed to air dry prior to further handling. All fungicides were evaluated using the aforementioned method for their activity vs. all target diseases, unless stated otherwise. Wheat leaf blotch and brown rust activity were also evaluated using track spray applications, in which case the fungicides were formulated as EC formulations, containing 0.1% Trycol 5941 in the spray solutions. Cucumber seedlings (variety Bush Pickle) were propagated in soil-less Metro mix, with each pot having one plant, and used in the test when 12 to 14 days old. Test plants were inoculated with an aqueous spore suspension of Colletotrichum lagenarium 24 hr after fungicide treatments. After inoculation the plants were kept in a dew room at 22° C. with 100% relative humidity for 48 hr to permit spores to germinate and infect the leaf. The plants were then transferred to a growth room set at 22° C. for disease to develop. Fungicide formulation, application and disease assessment on the sprayed leaves followed the procedures as described in the Example A.

Compound | PHAKPA 1DP disease control (Phakopsora pachyrhizi) | PHAKPA 3DC disease control (Phakopsora pachyrhizi) | PYRIOR disease control [1] | PSPECU disease control [2] | CERCBE disease control (Cercospora beticola) | ALTESO disease control (Alternaria solani) | LEPTNO disease control (Parastagonospora nodorum) | UNCINE disease control (Uncinula necator) | RHYNSE disease control (Rhyncosporium secalis) | COLLLA disease control [3]
COc1ccnc(C(=O)NCC(=O)O[C@@H](C)[C@H](C)c2ccc(F)cc2C)c1OC(=O)C(C)C [Example 197] | D (≤0) | D (≤0) | – | – | – | – | – | – | – | –
COc1ccnc(C(=O)N[C@H](C(=O)O[C@@H](C)[C@H](C)c2ccc(F)cc2C)C(C)C)c1OC(=O)C(C)C [Example 210] | – | D (≤0) | – | – | – | – | – | – | – | –
COc1ccnc(C(=O)N[C@H](C(=O)O[C@H](C)[C@H](C)c2ccc(F)cc2C)C(C)C)c1OC(=O)C(C)C [Example 214] | B (≤80) | – | – | – | – | – | – | – | – | –
COc1ccnc(C(=O)N[C@@H](C)C(=O)O[C@H](C)[C@@H](C)c2ccccc2C)c1OC(=O)C(C)C [Example 225] | D (≤0) | – | – | – | – | – | – | – | – | –
COc1ccnc(C(=O)N[C@@H](C)C(=O)O[C@H](C)[C@H](C)c2ccccc2C)c1OC(C)=O [Example 263] | – | – | B (≤80) | B (≤80) | B (≤80) | B (≤80) | B (≤80) | A (>80) | B (≤80) | D (≤0)
COc1ccnc(C(=O)N[C@@H](C)C(=O)O[C@@H](C)[C@@H](C)c2ccccc2C)c1OC(C)=O [Example 264] | – | – | A (>80) | B (≤80) | A (>80) | B (≤80) | A (>80) | A (>80) | B (≤80) | B (≤80)
COc1ccnc(C(=O)N[C@@H](C)C(=O)O[C@@H](C)[C@@H](C)c2ccccc2C)c1OC(=O)C(C)C [Example 266] | – | – | A (>80) | D (≤0) | B (≤80) | B (≤80) | A (>80) | A (>80) | B (≤80) | D (≤0)
